This note sets out measurements from US11173151B2, “Substituted triazole derivatives and uses thereof” (BAYER AKTIENGESELLSCHAFT, priority 2017, dated 2021).

Assay [1] concerns the target T1, human V1a receptor (Homo sapiens, UniProt P37288).
T1 construct: expressed in transfected cells; host or cells: CHO K1 (ATCC), also stably transfected with a modified aequorin
Kind of assay: Cellular in vitro assay for determining vasopressin receptor activity, V1a receptor cell line (CHO, aequorin luminescence). Type of assay: cell-based. Particulars: for IC50: CHO cell line transfected with human V1a receptor, [Arg]-vasopressin at EC50 concentration, read-out: IC50 hV1a; for ratio IC50 hV2/hV1a: selectivity ratio IC50 hV2 / IC50 hV1a. The method in brief: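 IC50 from inhibition of [Arg]-vasopressin (EC50 concentration)-evoked aequorin luminescence in CHO K1 cells, with 10-min compound pretreatment.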

Assay [2] has as its target T2, human V2 receptor (Homo sapiens, UniProt P30518).
T2 construct: expressed in transfected cells; host or cells: CHO K1 (ATCC) expressing firefly luciferase under a CRE-responsive promoter
Kind of assay: Cellular in vitro assay for determining vasopressin receptor activity, V2 receptor cell line (CHO, CRE-luciferase). Type of assay: cell-based. The note with it: CHO cell line transfected with human V2 receptor; [Arg8]-vasopressin at EC50 concentration, 3 hours; read-out: IC50 hV2.

T1 sequence (P37288 whole entry): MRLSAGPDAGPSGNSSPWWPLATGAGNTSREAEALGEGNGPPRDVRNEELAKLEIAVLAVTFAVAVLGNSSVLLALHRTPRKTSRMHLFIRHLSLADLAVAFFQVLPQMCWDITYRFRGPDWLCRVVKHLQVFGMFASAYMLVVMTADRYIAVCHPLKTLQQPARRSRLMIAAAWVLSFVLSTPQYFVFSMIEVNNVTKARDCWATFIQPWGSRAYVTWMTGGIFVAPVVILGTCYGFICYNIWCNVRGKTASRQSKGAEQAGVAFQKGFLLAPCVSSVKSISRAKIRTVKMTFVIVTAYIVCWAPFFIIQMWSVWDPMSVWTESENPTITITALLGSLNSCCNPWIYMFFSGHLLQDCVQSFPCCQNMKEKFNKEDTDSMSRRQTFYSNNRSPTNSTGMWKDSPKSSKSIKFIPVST
T2 sequence (P30518 whole entry): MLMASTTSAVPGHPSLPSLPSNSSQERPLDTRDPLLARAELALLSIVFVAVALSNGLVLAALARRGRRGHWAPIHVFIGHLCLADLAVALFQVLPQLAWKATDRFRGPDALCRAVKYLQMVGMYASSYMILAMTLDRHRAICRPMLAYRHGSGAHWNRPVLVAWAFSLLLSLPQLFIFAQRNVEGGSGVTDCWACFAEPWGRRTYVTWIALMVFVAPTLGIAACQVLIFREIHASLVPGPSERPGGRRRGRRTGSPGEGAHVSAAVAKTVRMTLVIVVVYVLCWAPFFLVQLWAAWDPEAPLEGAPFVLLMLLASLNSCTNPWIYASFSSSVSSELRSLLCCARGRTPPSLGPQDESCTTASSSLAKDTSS

As a reminder, the IC50 is the point on the concentration scale where inhibition reaches its midpoint. In the case of `O=C(NCC(F)(F)F)c1ccccc1-n1cnc(Cn2nc(-c3ccc(Cl)cc3)n(C[C@H](O)C(F)(F)F)c2=O)n1` [Example 174, 2-[3-({3-(4-Chlorophenyl)-5-oxo-4-[(2S)-3,3,3-trifluoro-2-hydroxypropyl]-4,5-dihydro-1H-1,2,4-triazol-1-yl}methyl)-1H-1,2,4-triazol-1-yl]-N-(2,2,2-trifluoroethyl)benzamide], in assay [1], the IC50 stood at 5.01 nM and the “ratio IC50 hV2/hV1a” value is 51.4. Moreover, in assay [2], the IC50 is 258 nM.
As for `O=C(c1ccccc1-n1cnc(Cn2nc(-c3ccc(Cl)cc3)n(C[C@H](O)C(F)(F)F)c2=O)n1)N1CCC(F)(F)CC1` [Example 175, 5-(4-Chlorophenyl)-2-[(1-{2-[(4,4-difluoropiperidin-1-yl)carbonyl]phenyl}-1H-1,2,4-triazol-3-yl)methyl]-4-[(2S)-3,3,3-trifluoro-2-hydroxypropyl]-2,4-dihydro-3H-1,2,4-triazol-3-one], in assay [1], the IC50 turned out to be 10.3 nM and the “ratio IC50 hV2/hV1a” value stood at 150.7. For the same molecule, in assay [2], the 50% inhibitory concentration (IC50) was 1540 nM.
The like results for `O=C(NC1CS(=O)(=O)C1)c1ccccc1-n1cnc(Cn2nc(-c3ccc(Cl)cc3)n(C[C@H](O)C(F)(F)F)c2=O)n1` [Example 176, 2-[3-({3-(4-Chlorophenyl)-5-oxo-4-[(2S)-3,3,3-trifluoro-2-hydroxypropyl]-4,5-dihydro-1H-1,2,4-triazol-1-yl}methyl)-1H-1,2,4-triazol-1-yl]-N-(1,1-dioxidothietan-3-yl)benzamide] were, in that order, 15 nM, 83.3 and 1250 nM.
Take `O=C(NCCN1CCCC1=O)c1ccccc1-n1cnc(Cn2nc(-c3ccc(Cl)cc3)n(C[C@H](O)C(F)(F)F)c2=O)n1` [Example 177, 2-[3-({3-(4-Chlorophenyl)-5-oxo-4-[(2S)-3,3,3-trifluoro-2-hydroxypropyl]-4,5-dihydro-1H-1,2,4-triazol-1-yl}methyl)-1H-1,2,4-triazol-1-yl]-N-[2-(2-oxopyrrolidin-1-yl)ethyl]benzamide]: the values for the half-inhibitory concentration (IC50) in assay [1] and in assay [2] were 9.9 nM and 690 nM, respectively. The “ratio IC50 hV2/hV1a” value in assay [1] came out at 69.7.
With `O=C1CC[C@@H](CNC(=O)c2ccccc2-n2cnc(Cn3nc(-c4ccc(Cl)cc4)n(C[C@H](O)C(F)(F)F)c3=O)n2)N1` [Example 178, 2-[3-({3-(4-Chlorophenyl)-5-oxo-4-[(2S)-3,3,3-trifluoro-2-hydroxypropyl]-4,5-dihydro-1H-1,2,4-triazol-1-yl}methyl)-1H-1,2,4-triazol-1-yl]-N-{[(2S)-5-oxopyrrolidin-2-yl]methyl}benzamide], the values for the IC50 in assay [1] and in assay [2] were 18.5 nM and 1800 nM, respectively. The “ratio IC50 hV2/hV1a” value in assay [1] came out at 97.3.
The like results for `O=C1CC[C@H](CNC(=O)c2ccccc2-n2cnc(Cn3nc(-c4ccc(Cl)cc4)n(C[C@H](O)C(F)(F)F)c3=O)n2)N1` [Example 179, 2-[3-({3-(4-Chlorophenyl)-5-oxo-4-[(2S)-3,3,3-trifluoro-2-hydroxypropyl]-4,5-dihydro-1H-1,2,4-triazol-1-yl}methyl)-1H-1,2,4-triazol-1-yl]-N-{[(2R)-5-oxopyrrolidin-2-yl]methyl}benzamide] were, in that order, 6.1 nM, 1700 nM and 278.7.
The corresponding values for `CC(=O)N[C@H]1CCN(C(=O)c2ccccc2-n2cnc(Cn3nc(-c4ccc(Cl)cc4)n(C[C@H](O)C(F)(F)F)c3=O)n2)C1` [Example 180, N-[(3S)-1-{2-[3-({3-(4-Chlorophenyl)-5-oxo-4-[(2S)-3,3,3-trifluoro-2-hydroxypropyl]-4,5-dihydro-1H-1,2,4-triazol-1-yl}methyl)-1H-1,2,4-triazol-1-yl]benzoyl}pyrrolidin-3-yl]acetamide] are 68 nM, 2950 nM and 43.4.
As to `CC1(C)CN(C(=O)c2ccccc2-n2cnc(Cn3nc(-c4ccc(Cl)cc4)n(C[C@H](O)C(F)(F)F)c3=O)n2)CCN1` [Example 181, 5-(4-Chlorophenyl)-2-[(1-{2-[(3,3-dimethylpiperazin-1-yl)carbonyl]phenyl}-1H-1,2,4-triazol-3-yl)methyl]-4-[(2S)-3,3,3-trifluoro-2-hydroxypropyl]-2,4-dihydro-3H-1,2,4-triazol-3-one], the values for the half-inhibitory concentration (IC50) in assay [1] and in assay [2] were 195 nM and 18700 nM, respectively.
Consider `O=C(NCCC(F)(F)F)c1ccccc1-n1cnc(Cn2nc(-c3ccc(Cl)cc3)n(C[C@H](O)C(F)(F)F)c2=O)n1` [Example 182, 2-[3-({3-(4-Chlorophenyl)-5-oxo-4-[(2S)-3,3,3-trifluoro-2-hydroxypropyl]-4,5-dihydro-1H-1,2,4-triazol-1-yl}methyl)-1H-1,2,4-triazol-1-yl]-N-(3,3,3-trifluoropropyl)benzamide], for which the IC50 in assay [1] came out at 24 nM; in assay [2], 2050 nM. Further, the “ratio IC50 hV2/hV1a” value in assay [1] is listed as 85.4.
As for `O=C(NCC1CS(=O)(=O)C1)c1ccccc1-n1cnc(Cn2nc(-c3ccc(Cl)cc3)n(C[C@H](O)C(F)(F)F)c2=O)n1` [Example 184, 2-[3-({3-(4-Chlorophenyl)-5-oxo-4-[(2S)-3,3,3-trifluoro-2-hydroxypropyl]-4,5-dihydro-1H-1,2,4-triazol-1-yl}methyl)-1H-1,2,4-triazol-1-yl]-N-[(1,1-dioxidothietan-3-yl)methyl]benzamide], in assay [1], the half-maximal inhibitory concentration (IC50) amounted to 28.5 nM and the “ratio IC50 hV2/hV1a” value was 108.8. Moreover, the IC50 in assay [2] turned out to be 3100 nM.
The like results for `O=C(NCCN1CCNC1=O)c1ccccc1-n1cnc(Cn2nc(-c3ccc(Cl)cc3)n(C[C@H](O)C(F)(F)F)c2=O)n1` [Example 185, 2-[3-({3-(4-Chlorophenyl)-5-oxo-4-[(2S)-3,3,3-trifluoro-2-hydroxypropyl]-4,5-dihydro-1H-1,2,4-triazol-1-yl}methyl)-1H-1,2,4-triazol-1-yl]-N-[2-(2-oxoimidazolidin-1-yl)ethyl]benzamide] were, in that order, 9 nM, 199.4 and 1800 nM.
As for `CC(C)(N)CNC(=O)c1cc(Cl)ccc1-n1cnc(Cn2nc(-c3ccc(Cl)cc3)n(C[C@H](O)C(F)(F)F)c2=O)n1` [Example 186, N-(2-Amino-2-methylpropyl)-5-chloro-2-[3-({3-(4-chlorophenyl)-5-oxo-4-[(2S)-3,3,3-trifluoro-2-hydroxypropyl]-4,5-dihydro-1H-1,2,4-triazol-1-yl}methyl)-1H-1,2,4-triazol-1-yl]benzamide], the figures for the 50% inhibitory concentration (IC50) in assay [1] and in assay [2] were 5.25 nM and 243 nM, respectively. In assay [1], the “ratio IC50 hV2/hV1a” value is given as 46.2.
Consider `CNC(=O)c1cc(Cl)ccc1-n1cnc(Cn2nc(-c3ccc(Cl)cc3)n(C[C@H](O)C(F)(F)F)c2=O)n1` [Example 187, 5-chloro-2-[3-({3-(4-Chlorophenyl)-5-oxo-4-[(2S)-3,3,3-trifluoro-2-hydroxypropyl]-4,5-dihydro-1H-1,2,4-triazol-1-yl}methyl)-1H-1,2,4-triazol-1-yl]-N-methylbenzamide], for which the IC50 in assay [1] is 12.3 nM; in assay [2] it was 48.5 nM. Moreover, in assay [1], the “ratio IC50 hV2/hV1a” value was determined as 3.9.
